# Laboratory results: PubChem BioAssay AID1963424 (Molecular Pharmacology Branch, DTP, NCI, 2024)
# Several values for one entry are separate records, joined by “and”; a condition that tells them apart may be missing. Equal values may be shown once.
# Test system: 327498-153-R-J2-PDC complex spheroid growth, % test/control
# Test: Anticancer human tumor 327498-153-R-J2-PDC patient-derived uterine carcinosarcoma cell line growth inhibition [Asc]
# Details: for viability, T/C: stronger effect = lower value
# Summary of the method: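 Complex solid-tumor spheroids incorporating human endothelial and mesenchymal stem cells received single agents or combinations over half-log dilution ranges anchored to clinical Cmax.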
# [1] = curve of first compound, second compound 0.1 µM
# [2] = curve of first compound, second compound 0.316 µM
# [3] = curve of first compound, second compound 1 µM
# [4] = second compound 0.1 µM, first compound 0.0316 µM
# [5] = second compound 0.1 µM, first compound 0.1 µM
# [6] = second compound 0.1 µM, first compound 0.316 µM
# [7] = second compound 0.1 µM, first compound 1 µM
# [8] = second compound 0.1 µM, first compound 3.16 µM
# [9] = second compound 0.1 µM, first compound 10 µM
# [10] = second compound 0.316 µM, first compound 0.0316 µM
# [11] = second compound 0.316 µM, first compound 0.1 µM
# [12] = second compound 0.316 µM, first compound 0.316 µM
# [13] = second compound 0.316 µM, first compound 1 µM
# [14] = second compound 0.316 µM, first compound 3.16 µM
# [15] = second compound 0.316 µM, first compound 10 µM
# [16] = second compound 1 µM, first compound 0.0316 µM
# [17] = second compound 1 µM, first compound 0.1 µM
# [18] = second compound 1 µM, first compound 0.316 µM
# [19] = second compound 1 µM, first compound 1 µM
# [20] = second compound 1 µM, first compound 3.16 µM
# [21] = second compound 1 µM, first compound 10 µM
# 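Also: spheroids exposed to compound for 7 days after 3 days of growth.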
# 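For viability, T/C in this document: 100% = DMSO vehicle control wells.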
Compound,IC50 [1],IC50 [2],IC50 [3],"viability, T/C [4]","viability, T/C [5]","viability, T/C [6]","viability, T/C [7]","viability, T/C [8]","viability, T/C [9]","viability, T/C [10]","viability, T/C [11]","viability, T/C [12]","viability, T/C [13]","viability, T/C [14]","viability, T/C [15]","viability, T/C [16]","viability, T/C [17]","viability, T/C [18]","viability, T/C [19]","viability, T/C [20]",further results
C=CC(=O)N1CCN(c2nc(=O)n(-c3c(C)ccnc3C(C)C)c3nc(-c4c(O)cccc4F)c(F)cc23)C(C)C1 (configuration not stated) + Cc1c(S(C)(=O)=O)c(-c2cc(F)cc(N3CCN(c4ccc(NS(=O)(=O)c5ccc(NC(CCN6CCC(C(=O)OCCCP(=O)(O)O)CC6)CSc6ccccc6)c(S(=O)(=O)C(F)(F)F)c5)cc4)CC3)c2)c(-c2ccc(Cl)cc2)n1C(C)C,> 10 µM,> 10 µM,> 10 µM,78.9%,68.5%,66.7%,69.5%,63.4%,64.8%,73.5%,71.6%,62.4%,63.2%,60.2%,56.4%,83.2%,71.9%,60.7%,71.2%,62.1%,"IC50 (curve of first compound, second compound 3.16 µM): > 10 µM; IC50 (curve of first compound, second compound 10 µM): > 10 µM; viability, T/C [21]: 64.7%; viability, T/C (second compound 3.16 µM, first compound 0.0316 µM): 84.6%; viability, T/C (second compound 3.16 µM, first compound 0.1 µM): 72.4%; viability, T/C (second compound 3.16 µM, first compound 0.316 µM): 62.4%; viability, T/C (second compound 3.16 µM, first compound 1 µM): 67.4%; viability, T/C (second compound 3.16 µM, first compound 3.16 µM): 65.4%; viability, T/C (second compound 3.16 µM, first compound 10 µM): 48.3%; viability, T/C (second compound 10 µM, first compound 0.0316 µM): 179%; viability, T/C (second compound 10 µM, first compound 0.1 µM): 164%; viability, T/C (second compound 10 µM, first compound 0.316 µM): 164%; viability, T/C (second compound 10 µM, first compound 1 µM): 136%; viability, T/C (second compound 10 µM, first compound 3.16 µM): 167%; viability, T/C (second compound 10 µM, first compound 10 µM): 151%"
C=CC(=O)N1CCN(c2nc(=O)n(-c3c(C)ccnc3C(C)C)c3nc(-c4c(O)cccc4F)c(F)cc23)C(C)C1 (configuration not stated) + CNC(C)C(=O)NC1CN(S(=O)(=O)c2cccc(S(=O)(=O)N3CCC4CCC(C(=O)NC(c5ccccc5)c5ccccc5)N4C(=O)C(NC(=O)C(C)NC)C3)c2)CCC2CCC(C(=O)NC(c3ccccc3)c3ccccc3)N2C1=O,> 10 µM,> 10 µM,> 10 µM,86%,79.4%,84.5%,77.6%,70.4%,67.6%,89.4%,83.3%,80.7%,73.8%,77.2%,75.5%,90.6%,78.8%,85.4%,77%,72.2%,"IC50 (curve of first compound, second compound 0.01 µM): > 10 µM; IC50 (curve of first compound, second compound 0.0316 µM): > 10 µM; viability, T/C (second compound 0.01 µM, first compound 0.0316 µM): 84.2%; viability, T/C (second compound 0.01 µM, first compound 0.1 µM): 96%; viability, T/C (second compound 0.01 µM, first compound 0.316 µM): 75%; viability, T/C (second compound 0.01 µM, first compound 1 µM): 74.6%; viability, T/C (second compound 0.01 µM, first compound 3.16 µM): 77.8%; viability, T/C (second compound 0.01 µM, first compound 10 µM): 64.6%; viability, T/C (second compound 0.0316 µM, first compound 0.0316 µM): 83.5%; viability, T/C (second compound 0.0316 µM, first compound 0.1 µM): 77.9%; viability, T/C (second compound 0.0316 µM, first compound 0.316 µM): 70.5%; viability, T/C (second compound 0.0316 µM, first compound 1 µM): 67%; viability, T/C (second compound 0.0316 µM, first compound 3.16 µM): 72.2%; viability, T/C (second compound 0.0316 µM, first compound 10 µM): 62.9%; viability, T/C [21]: 69.7%"
C=C(F)C(=O)N1CCN(c2nc(OCC3CCCN3C)nc3c2CCN(c2cccc4cccc(Cl)c24)C3)CC1CC#N (configuration not stated),–,–,–,–,–,–,–,–,–,–,–,–,–,–,–,–,–,–,–,–,"viability, T/C (compound 0.0316 µM): 68.8% and 82.4% and 85%; viability, T/C (compound 0.1 µM): 61.8% and 69.6% and 74.7%; viability, T/C (compound 0.316 µM): 56.1% and 67.6% and 66%; viability, T/C (compound 1 µM): 48.2% and 59.2% and 62.2%; viability, T/C (compound 3.16 µM): 19.4% and 14.3% and 24.8%; viability, T/C (compound 10 µM): 0.22% and 0.23% and 0.25%; IC50 (curve of compound): 0.654 µM and 1.24 µM and 1.27 µM"
